Results on 6 molecules are retold here after paper PMC5877385, “Gold nanoparticles stabilize peptide-drug-conjugates for sustained targeted drug delivery to cancer cells” (Journal of Nanobiotechnology, 2018).

For one data set, the system named is A20 cells. The data set can be described thus: Cell cytotoxicity assay (XTT). The format is cell-based, murine. The following applies: 72 h, free drug 0-50 µM; for IC50: Mus musculus. As for the experimental part: To measure drug cytotoxic effect, cells were seeded into 96-wells Nunclon culture plates at 2.5 × 10^3 cells per well and grown overnight at 37 °C. The spent medium was removed and the cells cultured for 72 h in fresh medium containing either free drug, PDCs, PEG-AuNPs or PDC-PEG-AuNPs at concentrations ranging from 0 to 50 µM (drug) filtered through a 0.22 µm syringe. Cellular metabolic status, used as a measure of cell viability, was then determined by replacing the culture medium with fresh medium containing XTT reagent (50 µl/well) and the cells were re-cultured for 2 h sat 37 °C. Absorbance in the wells was measured at 450 nm and subtracted from the reference absorbance at 630 nm. Culture medium was used as background control. All experiments were performed in triplicate on three separate occasions. Data are presented as mean ± S.D.

Data set [1] is described as follows: Chemostability in phosphate buffer. The format is physicochemical. To be noted: free PDC; 0.01 M phosphate buffer (method pH 7.2), 37 °C, LC-MS PDC peak area, exponential decay fit, two independent experiments. As for the experimental part: Stock solutions were prepared by dissolving 5 mg of P4-chlorambucil, P4-melphalan or P4-bendamustine coated PEG-AuNPs in 1 mL of deionized water.
100 μl of stock solution were diluted to 1 ml of 0.01 M phosphate buffer solution pH 7.2 and incubated at 37 °C. At designated time points an aliquot was removed and centrifuged at 5000 rpm for 5 min. The supernatant was recovered, filtered through a […] syringe and analyzed by LCMS for the presence of free drug. Results for each time point were expressed as mean % PDC integrity ± standard error, calculated from two independent experiments.
(§1) The chemo-stability of the P4-PDCs was tested at a physiological pH of 7.4, while the solutions were incubated at 37 °C. Biostability was assessed after incubation in a mouse liver homogenate. In each case aliquots were taken at selected times and analyzed by LC–MS. PDC integrity was determined by calculating the area under the curve of the PDC peak. The R^2 values of the exponential decay curves ranged from 0.97 to 0.99 for the three PDCs; the functions of these curves were used to calculate the t½ values. […] In liver homogenate (Fig. 5c), stability decayed more rapidly with half-lives ranging from 10.6 to 15.4 min. There was no significant difference in behavior between the three PDCs and no free drug was observed.

A short description of data set [2]: Biostability in liver homogenate. It is filed as in vitro ADME. The following applies: pH 7.4; free PDC; 100 µl sample in 1 ml mouse liver homogenate (6 mg total protein), 37 °C, LC-MS, exponential decay fit; read-out: Biostability (liver homogenate) t½. As to the method: Mice were sacrificed by CO2 euthanasia. Livers were removed, and rinsed in cold 0.01 M PBS buffer pH 7.4. They were transferred to 10 ml Tris-HCI, pH 7.4 and homogenized in a Potter–Elvehjem glass tissue grinder for 4 min. The tissue homogenate was centrifuged for 20 min at 4 °C, 14,000 rpm, and the supernatant was collected. Protein concentration was measured using the BCA protein assay using bovine serum albumin as a standard. The homogenate was used immediately or else stored in liquid nitrogen.
100 μl of each sample was added to 1 ml of liver homogenate (equivalent to 6 mg total protein). The samples were incubated at 37 °C and aliquots were taken during the different incubation period at different time intervals. The collected aliquots were immediately filtered, and analyzed by LC–MS.
as §1

Where a SMILES comes first, the peptide text is derived from it. [ ]: non-standard residue; d: D form. The star is where a group is joined. Phe(4-N(CH2CH2Cl)2) = N[C@@H](Cc1ccc(N(CCCl)CCCl)cc1)C(=O)O; Chlorambucil = O=C(CCCc1ccc(N(CCCl)CCCl)cc1)*; X1 = Cn1c(CCCC(=O)*)nc2cc(N(CCCl)CCCl)ccc21

The term IC50 denotes the concentration needed to halve the response being measured. The low end stands for greater potency, the high end for weaker potency. Turning to `O=C(O)CCCc1ccc(N(CCCl)CCCl)cc1` [Chlorambucil], in the data set with A20 cells, the “maximal %GI (growth inhibition)” value is given as 89.4% and the IC50 amounted to 15.8 µM.

Regarding `C[C@@H](O)[C@H](NC(=O)[C@H](CO)NC(=O)[C@H](Cc1c[nH]cn1)NC(=O)CCCc1nc2cc(N(CCCl)CCCl)ccc2n1C)C(=O)N1CCC[C@H]1C(=O)N[C@@H](CO)C(=O)N[C@@H](CO)C(=O)N1CCC[C@H]1C(=O)O` [P4-Bendamustine] (X1-HSTPSSP-OH), the “Chemostability (pH 7.4) t½” value in data set [1] is recorded as 19.3 mins. Moreover, the half-life in data set [2] came to 15.4 min.

As to `C[C@@H](O)[C@H](NC(=O)[C@H](CO)NC(=O)[C@H](Cc1c[nH]cn1)NC(=O)CCCc1ccc(N(CCCl)CCCl)cc1)C(=O)N1CCC[C@H]1C(=O)N[C@@H](CO)C(=O)N[C@@H](CO)C(=O)N1CCC[C@H]1C(=O)O` [P4-Chlorambucil] (Chlorambucil-HSTPSSP-OH), in data set [1], the “Chemostability (pH 7.4) t½” value was 21.5 mins. In addition, in data set [2], the half-life amounted to 12.4 min.

Take `Cn1c(CCCC(=O)O)nc2cc(N(CCCl)CCCl)ccc21` [bendamustine]: in the data set on A20 cells, the “maximal %GI (growth inhibition)” value is 43.1% and the IC50 was above 50 µM.

Take `N[C@@H](Cc1ccc(N(CCCl)CCCl)cc1)C(=O)O` [Melphalan]: in the data set with A20 cells, the “maximal %GI (growth inhibition)” value amounted to 94.9% and the IC50 turned out to be 9.6 µM.

For the molecule `C[C@@H](O)[C@H](NC(=O)[C@H](CO)NC(=O)[C@H](Cc1c[nH]cn1)NC(=O)[C@@H](N)Cc1ccc(N(CCCl)CCCl)cc1)C(=O)N1CCC[C@H]1C(=O)N[C@@H](CO)C(=O)N[C@@H](CO)C(=O)N1CCC[C@H]1C(=O)O` [P4-Melphalan] (H-[Phe(4-N(CH2CH2Cl)2)]HSTPSSP-OH), the “Chemostability (pH 7.4) t½” value in data set [1] was found to be 24.6 mins. For the same molecule, in data set [2], the half-life was 10.6 min.
